Data on three molecules can be found in patent US9708602B2, “Screening for inhibitors of ribosome biogenesis” (priority 2013, dated 2017).

For assay [1], the system named is E. coli MC4100 and MC-RG1 cells. The experiment in a line: Detection of ribosome assembly defects: growth (A650) and EGFP/mCherry fluorescence time course in 96-well plates. The format is cell-based. Conditions: 30° C., 96-well plate. From the text:
Monitoring biogenesis and assembly of ribosomal subunits also allows the detection of abnormalities in ribosome biogenesis and assembly processes. […] Chloramphenicol primarily binds to the large subunit and thereby inhibits the peptidyl transfer reaction. Alongside a resulting shut-down of protein synthesis, accumulating precursor particles of both ribosomal subunits have been observed. Therefore, treatment of cells with chloramphenicol causes precursor accumulation and assembly defects of ribosomal subunits. E. coli MC4100 and MC-RG1 cells were transferred to 96-well plates and incubated at 30° C. in a plate reader. After one hour, wild-type and reporter cells were treated with increasing amounts of chloramphenicol and incubation was continued for another six more hours. A650 values, EGFP and mCherry specific fluorescence intensities were automatically detected. In the absence of chloramphenicol, the growth curve of the reporter strain reached a maximum A650 of 0.5. […] In vivo fluorescence recordings of the E. coli MC4100rp/S-egfp,rpsB-mcherry-ΔygdP cells growing in 96-well plates were performed and fluorescent signals measured. EGFP/mCherry fluorescence intensity ratios differed clearly when comparing MC4100rp/S-egfp,rpsB-mcherry (RN55b) with MC4100rplS-egfp,rpsB-mcherry-ΔygdP reporter strains. […] The overall decreased EGFP/mCherry fluorescence ratio values of the knock-out strain compared to the RN55b reporter strain are caused by proportional lower EGFP fluorescence intensities. In summary, fluorescence recordings of reporter strains are suitable to detect changes in the level of ribosomal subunits, e.g. due to biogenesis defects.
Cells grown to stationary phase were diluted to an OD600 of 0.05 and transferred into 96-well plates, such that each well contained an initial volume of 100 μl. […] Cells were further incubated in the plate reader for several hours and fluorescence as well as A650 data were collected every 10 minutes. Mean values were calculated and MC4100 fluorescence background values were subtracted from the reporter strain values.

Another assay relates to MCrg* cells. As to the kind of experiment: Probing MCrg* with ribosome-targeting antibiotics: whole-cell growth and mAzami/mCherry fluorescence ratio. The format is cell-based, E. coli. The method, then: (§1) Whole-cell analyses (A-B): MCrg* cells were cultured in at 25° C. in M9 medium for 7 hours in the absence and presence of antibiotics, as indicated. Samples were taken every hour. (A) OD600 values were determined and (B) mAzami and mCherry fluorescence emission were detected and ratios were calculated. Fluorescence ratios of MCrg* were normalized to 1. Exemplary growth curves are given and fluorescence ratios are means from three independent experiments; error bars show s.d. Analyses of isolated ribosomal particles (C-H and J-M): Sucrose density gradient (10-25%) centrifugation profiles from (C) control cells with no antibiotic (none), (D) chloramphenicol (Cam), (E) erythromycin (Ery), (F) kanamycin (Kan) and (G) neomycin (Neo) treated cells. Sucrose gradient fractions from (C) to (G) were analyzed for fluorescence by a micro plate reader. A254 profiles and fluorescence bar charts were superimposed for (H) control cells with no antibiotic (none), (J) chloramphenicol (Cam), (K) erythromycin (Ery), (L) kanamycin (kan) and (M) neomycin (Neo) treated cells. Cells in presence and absence of antibiotics were cultured in LB medium at 25° C. for 3 hours before subsequent polysome analysis. Left shifted peaks of the large subunit are indicated by horizontal arrows, abnormal portions of the small subunit by vertical arrows; Bars with black lines: normalized mCherry fluorescence; Black bars: normalized mAzami fluorescence. Fluorescence was normalized to the first polysome peak (“disome”) where subunits are present in 1:1 ratio.
(§2) Using MCrg*, it was investigated, whether treatment of cells with ribosome targeting antibiotics results in assembly defects of both ribosomal subunits. The antibiotics tested were chloramphenicol, erythromycin and neomycin, which are known to cause assembly defects of both ribosomal subunits, and kanamycin, which was so far not investigated for its potential to cause ribosome assembly defects. MCrg* cells were cultured in M9 medium for seven hours in the absence or presence of chloramphenicol (7 μg/ml), erythromycin (100 μg/ml), kanamycin (7 μg/ml) or neomycin (7 μg/ml). […] Treatment with chloramphenicol, by contrast, led to an increased fluorescence ratio, with a maximum of 1.20 after 7 hours. […] This hypothesis was tested by analyzing ribosome profiles obtained from MCrg* cells that grew in the presence of the antibiotics or without (FIG. 15C-G). […] The 70S peak and the polysomes (not shown) are reduced in intensity since no chloramphenicol was added prior to harvesting to prevent 70S run off.

Assay [2] deals with ribosomal subunits of MCrg* cells. As to the kind of experiment: Sucrose density gradient ribosome profiles (A254 and fluorescence of fractions) of antibiotic treated MCrg* cells. Conditions: for 30S peak region in A254 ribosome profile / 50S peak in A254 ribosome profile: cells cultured with antibiotic in LB medium at 25° C. for 3 hours, 10-25% sucrose gradient; for green (mAzami, large subunit) fluorescence in overlay of A254 and fluorescence profiles: sucrose gradient fractions, micro plate reader. The format is cell-based, E. coli. On the procedure:
as §1, §2
When focusing on the overlay diagrams (combining A254 and fluorescence read outs) (FIG. 15H, J-M), ribosome profiles from non treated cells are basically congruent (FIG. 15H). […] These peaks of green fluorescence presumably represent defective assembly intermediates of the large subunit that are caused by all the antibiotics used in this study, but to different extend. […] To analyze eventual defects of the small subunit in more detail, the red fluorescence profiles were aligned and the one derived from non treated cells was compared with all the others obtained from antibiotic treated cells. […] A more thorough analysis including quantitation of the 16S and 23S rRNA within the sucrose fractions confirmed the presence of assembly intermediates.
E. coli cells were inoculated from stationary cultures and incubated until mid-logarithmic phase (OD600=0.6-0.8). In order to record polysome profiles, cells were sedimented, resuspended and lysed. After centrifugation, lysates of 10 A260 units were loaded onto 5-45% sucrose gradients for polysome profiles or 10-40% gradients for subunit separation. Ultracentrifugation was performed at 41.000 rpm (3 h; polysome profiles) or 23.000 rpm (16 h, subunit separation). Ribosomal components in the gradients were analyzed by recording the A254 values and collecting 200 μl and 50 μl fractions, respectively, that were later examined in 96-well plates on fluorescence by using a plate reader.

In the case of `O=C(N[C@H](CO)[C@H](O)c1ccc([N+](=O)[O-])cc1)C(Cl)Cl` [chloramphenicol], the “concentration above which cells did not grow any further” value in assay [1] (added after one hour, six more hours incubation) is “higher than 15.5 μM”. Besides, the “cell growth (A650)” value in assay [1] (increasing amounts added after one hour, six more hours incubation) is “dosedependent reduction of cell growth”. Besides, the “EGFP and mCherry fluorescence” value in assay [1] (increasing concentrations) is given as “decreased with increasing concentrations”. The “cell growth (OD600)” value with MCrg* cells (M9 medium, seven hours, 25° C., chloramphenicol 7 μg/ml, erythromycin 100 μg/ml, kanamycin 7 μg/ml, neomycin 7 μg/ml) is “strongest growth defects”. For the same molecule, the “normalized fluorescence ratio (mAzami/mCherry), maximum” value in the assay with MCrg* cells (chloramphenicol 7 μg/ml, after 7 hours, untreated MCrg* normalized to 1) was 1.20. Also, in assay [2], the “30S peak region in A254 ribosome profile” value is reported as “additional peak (left-lateral of 30S)”; the “50S peak in A254 ribosome profile” value is “reduced and left shifted 50S peaks”; the “green (mAzami, large subunit) fluorescence in overlay of A254 and fluorescence profiles” value (“green” below) is reported as “portion of green fluorescence within the region of the 30S peak”.
As to `CC[C@H]1OC(=O)[C@H](C)[C@@H](O[C@H]2C[C@@](C)(OC)[C@@H](O)[C@H](C)O2)[C@H](C)[C@@H](O[C@@H]2O[C@H](C)C[C@H](N(C)C)[C@H]2O)[C@](C)(O)C[C@@H](C)C(=O)[C@H](C)[C@@H](O)[C@]1(C)O` [erythromycin], in the assay on MCrg* cells (erythromycin 100 μg/ml, after 5 hours, untreated MCrg* normalized to 1), the “normalized fluorescence ratio (mAzami/mCherry)” value came to 0.95. Further, in assay [2], the “30S peak region in A254 ribosome profile” value is recorded as 30S peak had a shoulder on the left; the “50S peak in A254 ribosome profile” value is “reduced and left shifted 50S peaks”; the “green” value is on record as “portion of green fluorescence within the region of the 30S peak”.
As for neomycin, the “change in the fluorescence ratio (mAzami/mCherry)” value in the assay on MCrg* cells (7 μg/ml, seven hours time course) was “did not show a significant change in the fluorescence ratio”. In addition, in assay [2], the “30S peak region in A254 ribosome profile” value is “additional peak on the left of the 30S peak”; the “50S peak in A254 ribosome profile” value was “slight reduction and left shift of the 50S peak”; the “green” value was “green fluorescent peaks of weaker intensity but at similar positions within the profile”.
